Reference: patent publication US20140171320A1, “Composition Comprising A Pesticide And An Alkoxylate Of 2-Isopropyl-5-Methylhexane-1-Amine” (BASF SE, priority 2012, published 2014)

Tests used:
[1] = test system: Sorghum halepense (SORHA); experiment: Greenhouse herbicidal activity of glyphosate SL formulation with amine alkoxylate adjuvant on Sorghum; assay type: in vivo; details: after 21 days; 140 g glyphosate-IPA salt/ha and 300 g amine alkoxylate/ha; score vs untreated plants
Procedure: (§1) For the greenhouse tests, winter wheat (cultivar Cubus), soybean (cultivar Sultana), and maize (cultivar Amadeo) was sown or potted in loamy sandy soil to a depth of 1-2 cm. When the plants had reached a growth height of 10 to 25 cm (i.e., around 10 to 21 days after sowing), the spray mixtures were applied to the plants in a spraying cabin.
(§2) A concentrated formulation comprising glyphosate isopropylammonium in solution in water and amine alkoxylate from Example 2 was diluted with deionized water and applied at a water application rate of 375 l/ha (140 g of glyphosate-IPA salt/ha and 300 g of amine alkoxylate/ha). The temperatures in the experimental period, which lasted for 3 weeks, were between 18-35° C. During this time, the experimental plants received optimum watering, with nutrients being supplied via the water used for watering.
(§3) The herbicidal activity was evaluated by awarding scores to the treated plants in comparison to the untreated control plants (Table 2). The evaluation scale ranges from 0% to 100% activity. 100% activity means the complete death at least of those parts of the plant that are above ground. Conversely, 0% activity means that there were no differences between treated and untreated plants.
(§4) The experiments were carried out as in Example 3, on Sorghum halepense (SORHA) and Setaria verticillata (SETVE). The application rate was 140 g of glyphosate-IPA salt/ha and 300 g of amine alkoxylate/ha.

[2] = test system: winter wheat (cultivar Cubus); experiment: Greenhouse herbicidal activity of glyphosate SL formulation with amine alkoxylate adjuvant on winter wheat; assay type: in vivo; details: after 21 days; 140 g glyphosate-IPA salt/ha and 300 g amine alkoxylate/ha, 375 l/ha water; score vs untreated plants
Procedure: as §1, §2, §3

[3] = test system: maize (cultivar Amadeo); experiment: Greenhouse herbicidal activity of glyphosate SL formulation with amine alkoxylate adjuvant on maize; assay type: in vivo; details: after 21 days; 140 g glyphosate-IPA salt/ha and 300 g amine alkoxylate/ha, 375 l/ha water; score vs untreated plants
Procedure: as §1, §2, §3

[4] = test system: Setaria verticillata (SETVE); experiment: Greenhouse herbicidal activity of glyphosate SL formulation with amine alkoxylate adjuvant on Setaria; assay type: in vivo; details: after 21 days; 140 g glyphosate-IPA salt/ha and 300 g amine alkoxylate/ha; score vs untreated plants
Procedure: as §1, §2, §3, §4

[5] = test system: soybean (cultivar Sultana); experiment: Greenhouse herbicidal activity of glyphosate SL formulation with amine alkoxylate adjuvant on soybean; assay type: in vivo; details: after 21 days; 140 g glyphosate-IPA salt/ha and 300 g amine alkoxylate/ha, 375 l/ha water; score vs untreated plants
Procedure: as §1, §2, §3

[6] = Storage stability of aqueous glyphosate formulation; assay type: physicochemical; details: 41.5% by weight glyphosate-isopropylammonium salt and 15.5% by weight amine alkoxylate, −5 to +55° C.

| Compound | Activity [%] SORHA [1] [%] | Activity [%] Winter wheat [2] [%] | Activity [%] Maize [3] [%] | Activity [%] SETARIA [4] [%] | Activity [%] Soybean [5] [%] | Storage stability [6] |
| --- | --- | --- | --- | --- | --- | --- |
| 2-propylheptylamine-10 EO | 97 | 55 | 80 | 88 | 42 |  |
| 2-Isopropyl-5-methylhexane-1-amine-10 EO | 93 | 62 | 80 | 78 | 48 | storage stable for at least two weeks |
| CC(C)N.O=C(O)CNCP(=O)(O)O [—, glyphosate isopropylammonium] | 33 | 18 | 32 | 58 | 20 |  |
